Test results from ChEMBL document CHEMBL1201862, “PubChem BioAssay data set” (2004).
Blank lines part the entries; values can stand above or below the molecule they belong to. Activity calls are given as the source filed them.

Columns and labels:
[1] = target: T1, Type-1 angiotensin II receptor (Homo sapiens, UniProt P30556); experiment: AT1 receptor agonists, dose response, selectivity assay for APJ receptor agonist project, cell-based, uHTS hits (AID 488865); assay type: functional;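 note: beta-arrestin recruitment to AT1 measured by enzyme fragment complementation luminescence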
T1 sequence (P30556 whole entry): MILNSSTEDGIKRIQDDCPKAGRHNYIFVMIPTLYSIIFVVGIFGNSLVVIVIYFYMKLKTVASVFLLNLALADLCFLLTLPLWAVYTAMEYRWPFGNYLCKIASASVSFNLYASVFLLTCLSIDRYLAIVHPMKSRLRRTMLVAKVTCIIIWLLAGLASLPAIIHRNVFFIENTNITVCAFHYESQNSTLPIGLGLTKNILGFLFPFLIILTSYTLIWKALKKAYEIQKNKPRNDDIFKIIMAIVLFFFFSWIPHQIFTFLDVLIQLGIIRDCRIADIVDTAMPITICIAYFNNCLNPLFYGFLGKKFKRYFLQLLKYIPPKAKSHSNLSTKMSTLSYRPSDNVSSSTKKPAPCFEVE

[2] = target: T2, G-protein coupled receptor 35 (Homo sapiens, UniProt Q9HC97); experiment: SAR analysis of Agonists of the GPR35 Receptor using an Image-Based Assay - Set 4. [Related pubchem assays (depositor defined):AID2013, AID2026]; assay type: functional
Cannabinoid receptor 1 [3] = target: T3, Cannabinoid receptor 1 (Homo sapiens, UniProt P21554); experiment: SAR analysis of agonists of the Cannabinoid Receptor 1 using an Image-Based Assay - Set 4. [Related pubchem assays (depositor defined):AID2013, AID2026]; assay type: functional
[4] = target: T2, G-protein coupled receptor 35; experiment: SAR analysis of Antagonists of the GPR35 Receptor using an Image-Based Assay - Set 6. [Related pubchem assays (depositor defined):AID2013, AID2026]; assay type: functional
Cannabinoid receptor 1 [5] = target: T3, Cannabinoid receptor 1; experiment: SAR analysis of antagonists of the Cannabinoid Receptor 1 using an Image-Based Assay - Set 4. [Related pubchem assays (depositor defined):AID2013, AID2026]; assay type: functional
[6] = target: T4, G-protein coupled receptor 55 (Homo sapiens, UniProt Q9Y2T6); experiment: SAR Analysis of Selective Antagonists of GPR55 using an Image-Based Assay - Set 4. [Related pubchem assays (depositor defined):AID2013, AID2026]; assay type: functional
Cannabinoid receptor 2 [7] = target: T5, Cannabinoid receptor 2 (Homo sapiens, UniProt P34972); experiment: SAR analysis of antagonists of the Cannabinoid Receptor 2 using an Image-Based Assay - Set 3. [Related pubchem assays (depositor defined):AID2013, AID2026]; assay type: functional
Cannabinoid receptor 2 [8] = target: T5, Cannabinoid receptor 2; experiment: SAR analysis of agonists of the Cannabinoid Receptor 2 using an Image-Based Assay - Set 3. [Related pubchem assays (depositor defined):AID2013, AID2026]; assay type: functional
[9] = target: T4, G-protein coupled receptor 55; experiment: GPR55 antagonists blocking LPI-driven arrestin recruitment, primary screen, imaging, U2OS, beta-arrestin-GFP, LPI agonist (AID 2013); assay type: functional;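 note: antagonist potency measured as reduced agonist-driven arrestin aggregation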
Cannabinoid receptor 1 [10] = target: T3, Cannabinoid receptor 1; experiment: SAR analysis of antagonists of the Cannabinoid Receptor 1 using an Image-Based Assay - Set 2. [Related pubchem assays (depositor defined):AID2013, AID2026]; assay type: functional
[11] = target: T2, G-protein coupled receptor 35; experiment: SAR analysis of Agonists of the GPR35 Receptor using an Image-Based Assay - Set 2. [Related pubchem assays (depositor defined):AID2013, AID2026]; assay type: functional
Cannabinoid receptor 2 [12] = target: T5, Cannabinoid receptor 2; experiment: SAR analysis of antagonists of the Cannabinoid Receptor 2 using an Image-Based Assay. [Related pubchem assays (depositor defined):AID2013, AID2026]; assay type: functional
Cannabinoid receptor 1 [13] = target: T3, Cannabinoid receptor 1; experiment: SAR analysis of agonists of the Cannabinoid Receptor 1 using an Image-Based Assay - Set 2. [Related pubchem assays (depositor defined):AID2013, AID2026]; assay type: functional
[14] = target: T2, G-protein coupled receptor 35; experiment: SAR analysis of Antagonists of the GPR35 Receptor using an Image-Based Assay - Set 3. [Related pubchem assays (depositor defined):AID2013, AID2026]; assay type: functional
[15] = target: T4, G-protein coupled receptor 55; experiment: GPR55 antagonist potency of analogs, SAR follow-up, imaging, U2OS, beta-arrestin-GFP, LPI agonist, set 2 (AID 2820); assay type: functional
Cannabinoid receptor 2 [16] = target: T5, Cannabinoid receptor 2; experiment: SAR analysis of agonists of the Cannabinoid Receptor 2 using an Image-Based Assay. [Related pubchem assays (depositor defined):AID2013, AID2026]; assay type: functional
[17] = target: Sphingosine 1-phosphate receptor 5 (Homo sapiens, UniProt Q9H228); experiment: (§1) Late-stage fluorescence-based dose-response cell-based assay to identify agonists of the Sphingosine 1-Phosphate Receptor 4 (S1P4): Sphingosine 1-Phosphate Receptor 5 (S1P5) counterscreen assay. [Related pubchem assays (depositor defined):AID1509, AID1523, AID1563, AID1686, AID1701, AID1801, AID463107, AID463225, AID504400]; assay type: functional
[18] = target: Sphingosine 1-phosphate receptor 1 (Homo sapiens, UniProt P21453); experiment: as §1, with “1 (S1P1)” for “5 (S1P5)”; assay type: functional
[19] = target: Sphingosine 1-phosphate receptor 2 (Homo sapiens, UniProt O95136); experiment: as §1, with “2 (S1P2)” for “5 (S1P5)”; assay type: functional
[20] = target: Sphingosine 1-phosphate receptor 3 (Homo sapiens, UniProt Q99500); experiment: as §1, with “3 (S1P3)” for “5 (S1P5)”; assay type: functional
[21] = target: Signal transducer and activator of transcription 3 (Homo sapiens, UniProt P40763); experiment: STAT3 inhibitors, late-stage profile, late-stage follow-up, cell-based, STAT1 panel, qPCR, cytotoxicity, panel member STAT3 Inhibition (AID 2078)
[22] = target: Signal transducer and activator of transcription 1-alpha/beta (Homo sapiens, UniProt P42224); experiment: STAT3 inhibitors, late-stage profile, late-stage follow-up, cell-based, STAT1 panel, qPCR, cytotoxicity, panel member STAT1 Inhibition (AID 2078)
[23] = target: Tyrosine-protein phosphatase non-receptor type 12 (Homo sapiens, UniProt Q05209); experiment: SAR Selectivity Analysis of small molecule inhibitors of PEST using pCAP in a fluorescence assay. [Related pubchem assays (depositor defined):AID1779, AID1784, AID2135]; assay type: functional
[24] = target: T6, Tyrosine-protein phosphatase non-receptor type 22 (Homo sapiens, UniProt Q9Y2R2); experiment: SAR LYP1 Fluorescent Assay using OMFP substrate for In Vitro dose response studies - Set 3. [Related pubchem assays (depositor defined):AID1779, AID1784, AID2140, AID2686]; assay type: functional
T6 sequence (Q9Y2R2 whole entry): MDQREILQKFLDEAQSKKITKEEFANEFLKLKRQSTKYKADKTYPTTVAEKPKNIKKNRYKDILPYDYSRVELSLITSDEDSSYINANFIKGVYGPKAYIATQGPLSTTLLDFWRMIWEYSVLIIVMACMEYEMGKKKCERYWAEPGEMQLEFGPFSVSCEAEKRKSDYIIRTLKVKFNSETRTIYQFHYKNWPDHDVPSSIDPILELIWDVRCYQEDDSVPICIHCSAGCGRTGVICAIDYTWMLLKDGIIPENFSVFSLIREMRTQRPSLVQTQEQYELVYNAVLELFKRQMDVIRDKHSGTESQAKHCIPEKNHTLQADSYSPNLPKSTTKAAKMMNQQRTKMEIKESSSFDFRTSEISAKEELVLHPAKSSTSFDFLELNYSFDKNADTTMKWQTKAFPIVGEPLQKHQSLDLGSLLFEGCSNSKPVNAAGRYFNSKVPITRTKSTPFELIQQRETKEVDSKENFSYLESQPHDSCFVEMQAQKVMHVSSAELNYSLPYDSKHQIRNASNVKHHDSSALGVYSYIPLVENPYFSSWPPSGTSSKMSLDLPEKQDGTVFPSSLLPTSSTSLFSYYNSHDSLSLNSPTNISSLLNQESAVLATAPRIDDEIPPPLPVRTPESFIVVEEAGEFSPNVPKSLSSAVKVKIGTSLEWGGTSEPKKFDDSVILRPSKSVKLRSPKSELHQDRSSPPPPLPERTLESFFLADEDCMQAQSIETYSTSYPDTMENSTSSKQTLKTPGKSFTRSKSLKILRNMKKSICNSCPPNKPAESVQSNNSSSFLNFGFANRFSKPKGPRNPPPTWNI

[25] = target: T7, Tyrosine-protein phosphatase non-receptor type 7 (Homo sapiens, UniProt P35236); experiment: redox-dependent HePTP inhibition, mechanism study, biochemical, fluorescence (AID 2068); assay type: functional
T7 sequence (P35236 whole entry): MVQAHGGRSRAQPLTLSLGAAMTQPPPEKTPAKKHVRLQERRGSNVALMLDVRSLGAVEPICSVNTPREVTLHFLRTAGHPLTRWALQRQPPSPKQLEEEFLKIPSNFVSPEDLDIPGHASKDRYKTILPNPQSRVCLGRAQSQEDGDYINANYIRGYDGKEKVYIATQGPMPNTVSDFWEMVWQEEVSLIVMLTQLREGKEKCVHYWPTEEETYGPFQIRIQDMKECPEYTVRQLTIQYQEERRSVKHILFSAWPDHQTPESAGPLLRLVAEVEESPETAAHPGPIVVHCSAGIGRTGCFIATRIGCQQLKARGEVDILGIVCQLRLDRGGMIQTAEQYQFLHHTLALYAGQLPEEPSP

[26] = target: T7, Tyrosine-protein phosphatase non-receptor type 7; experiment: HePTP (PTPN7) phosphatase inhibitor potency, SAR follow-up, biochemical, set 2 (AID 449736); assay type: functional
[27] = target: T6, Tyrosine-protein phosphatase non-receptor type 22; experiment: LYP (PTPN22) phosphatase inhibitor potency, SAR follow-up, biochemical, pCAP fluorogenic substrate, fluorescence, set 3 (AID 449727); assay type: functional
[28] = target: Dual specificity protein phosphatase 3 (Homo sapiens, UniProt P51452); experiment: SAR VHR1 Fluorescent Assay for In Vitro dose response studies Set 2. [Related pubchem assays (depositor defined):AID1654, AID1661, AID1878]; assay type: functional
[29] = target: T8, Dual specificity protein phosphatase 6 (Rattus norvegicus, UniProt Q64346); assay type: functional;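 note: confirmatory in vitro dose-response testing of MKP-3 inhibition; recombinant His-tagged MKP-3 made in E. coli BL21 with OMFP substrate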
T8 sequence (Q64346 whole entry): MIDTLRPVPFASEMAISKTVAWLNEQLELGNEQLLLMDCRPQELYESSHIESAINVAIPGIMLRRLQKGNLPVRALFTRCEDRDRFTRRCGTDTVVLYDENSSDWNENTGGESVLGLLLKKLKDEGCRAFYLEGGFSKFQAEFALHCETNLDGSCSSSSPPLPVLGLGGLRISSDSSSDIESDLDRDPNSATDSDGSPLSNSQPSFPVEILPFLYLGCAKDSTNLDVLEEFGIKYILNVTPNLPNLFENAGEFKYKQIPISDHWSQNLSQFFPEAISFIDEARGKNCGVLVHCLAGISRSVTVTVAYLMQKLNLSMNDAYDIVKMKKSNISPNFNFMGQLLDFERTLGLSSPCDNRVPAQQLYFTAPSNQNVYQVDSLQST

[30] = target: T9, Runt-related transcription factor 1/Core-binding factor subunit beta (Homo sapiens, UniProt Q01196+Q13951); experiment: inhibitors of RUNX1 Runt–CBFb-SMMHC binding, primary screen, biochemical, FRET, Cerulean-Runt, Venus-CBFb-SMMHC, uHTS (AID 1434); assay type: protein assay;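 note: partner is the CBFb-SMMHC leukemia fusion protein rather than wild-type CBFb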
[31] = target: T9, Runt-related transcription factor 1/Core-binding factor subunit beta; experiment: inhibitors of RUNX1 Runt–CBFb-SMMHC binding, biochemical, TR-FRET (AID 1438); assay type: protein assay

T2 sequence (Q9HC97 whole entry): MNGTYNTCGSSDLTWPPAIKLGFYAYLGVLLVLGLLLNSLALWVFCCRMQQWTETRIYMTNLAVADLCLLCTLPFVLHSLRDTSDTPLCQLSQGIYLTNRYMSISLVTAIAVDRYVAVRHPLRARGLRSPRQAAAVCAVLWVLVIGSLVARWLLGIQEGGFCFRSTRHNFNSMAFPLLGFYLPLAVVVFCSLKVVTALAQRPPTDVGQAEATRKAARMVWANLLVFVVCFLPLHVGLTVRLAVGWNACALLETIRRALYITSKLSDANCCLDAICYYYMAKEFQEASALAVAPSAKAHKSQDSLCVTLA
T5 sequence (P34972 whole entry): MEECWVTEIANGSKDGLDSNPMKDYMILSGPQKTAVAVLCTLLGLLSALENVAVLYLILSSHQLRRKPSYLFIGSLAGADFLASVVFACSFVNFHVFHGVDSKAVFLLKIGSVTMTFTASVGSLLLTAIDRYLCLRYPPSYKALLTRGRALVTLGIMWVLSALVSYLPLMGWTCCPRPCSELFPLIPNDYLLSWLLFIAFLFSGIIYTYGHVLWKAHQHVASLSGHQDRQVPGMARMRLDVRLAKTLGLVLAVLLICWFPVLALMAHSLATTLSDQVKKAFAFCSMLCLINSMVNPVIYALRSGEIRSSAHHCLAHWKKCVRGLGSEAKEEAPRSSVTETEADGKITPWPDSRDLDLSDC
T4 sequence (Q9Y2T6 whole entry): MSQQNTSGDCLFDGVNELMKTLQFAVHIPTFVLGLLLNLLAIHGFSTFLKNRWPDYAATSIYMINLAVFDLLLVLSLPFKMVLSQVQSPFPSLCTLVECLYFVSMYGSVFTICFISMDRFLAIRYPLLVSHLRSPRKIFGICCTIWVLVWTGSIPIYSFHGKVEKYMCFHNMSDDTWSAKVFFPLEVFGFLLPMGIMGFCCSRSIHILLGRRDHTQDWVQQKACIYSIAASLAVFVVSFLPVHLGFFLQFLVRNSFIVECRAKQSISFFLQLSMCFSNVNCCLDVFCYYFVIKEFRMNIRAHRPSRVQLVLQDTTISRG
T3 sequence (P21554 whole entry): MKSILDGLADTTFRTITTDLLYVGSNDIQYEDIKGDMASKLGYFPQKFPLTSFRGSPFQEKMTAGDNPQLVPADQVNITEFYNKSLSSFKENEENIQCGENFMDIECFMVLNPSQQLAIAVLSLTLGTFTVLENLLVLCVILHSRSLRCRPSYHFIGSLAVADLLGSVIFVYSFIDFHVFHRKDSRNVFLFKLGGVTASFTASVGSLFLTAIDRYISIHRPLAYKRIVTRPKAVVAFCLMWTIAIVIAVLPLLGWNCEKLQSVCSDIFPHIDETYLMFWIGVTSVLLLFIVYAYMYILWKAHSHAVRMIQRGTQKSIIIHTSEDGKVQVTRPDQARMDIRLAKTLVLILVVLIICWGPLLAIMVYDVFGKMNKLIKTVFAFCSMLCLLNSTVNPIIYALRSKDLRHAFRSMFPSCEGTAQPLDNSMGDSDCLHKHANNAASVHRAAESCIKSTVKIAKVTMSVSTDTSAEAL
T9 sequence (Q01196 whole entry, the tested form may be a part): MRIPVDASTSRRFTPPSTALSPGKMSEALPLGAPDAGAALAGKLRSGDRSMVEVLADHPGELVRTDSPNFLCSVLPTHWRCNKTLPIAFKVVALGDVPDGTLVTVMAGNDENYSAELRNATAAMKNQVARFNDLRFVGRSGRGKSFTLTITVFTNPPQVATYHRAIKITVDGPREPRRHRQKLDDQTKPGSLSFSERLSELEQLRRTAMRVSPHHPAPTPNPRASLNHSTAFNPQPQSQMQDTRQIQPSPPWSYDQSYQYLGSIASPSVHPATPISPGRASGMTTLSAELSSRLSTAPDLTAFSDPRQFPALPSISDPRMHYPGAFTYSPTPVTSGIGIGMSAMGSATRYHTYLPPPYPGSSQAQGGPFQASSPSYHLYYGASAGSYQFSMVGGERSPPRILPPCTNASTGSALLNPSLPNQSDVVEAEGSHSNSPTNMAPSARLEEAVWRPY
T9 sequence (Q13951 whole entry, the tested form may be a part): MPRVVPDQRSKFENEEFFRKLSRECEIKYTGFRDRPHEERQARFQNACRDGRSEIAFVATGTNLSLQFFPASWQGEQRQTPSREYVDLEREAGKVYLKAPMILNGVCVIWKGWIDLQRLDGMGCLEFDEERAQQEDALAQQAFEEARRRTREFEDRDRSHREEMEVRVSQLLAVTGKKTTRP
Chain of Sphingosine 1-phosphate receptor 3 (Q99500 whole entry): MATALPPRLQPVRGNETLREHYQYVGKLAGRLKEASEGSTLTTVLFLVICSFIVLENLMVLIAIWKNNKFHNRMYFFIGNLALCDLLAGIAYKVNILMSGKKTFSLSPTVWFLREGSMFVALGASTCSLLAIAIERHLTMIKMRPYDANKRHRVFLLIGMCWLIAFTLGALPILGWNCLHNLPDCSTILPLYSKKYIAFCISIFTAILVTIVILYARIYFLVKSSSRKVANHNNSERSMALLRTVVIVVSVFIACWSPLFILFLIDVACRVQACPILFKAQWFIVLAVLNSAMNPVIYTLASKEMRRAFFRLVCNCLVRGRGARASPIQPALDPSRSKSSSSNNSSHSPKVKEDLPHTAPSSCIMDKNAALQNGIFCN
Chain of Signal transducer and activator of transcription 1-alpha/beta (P42224 whole entry): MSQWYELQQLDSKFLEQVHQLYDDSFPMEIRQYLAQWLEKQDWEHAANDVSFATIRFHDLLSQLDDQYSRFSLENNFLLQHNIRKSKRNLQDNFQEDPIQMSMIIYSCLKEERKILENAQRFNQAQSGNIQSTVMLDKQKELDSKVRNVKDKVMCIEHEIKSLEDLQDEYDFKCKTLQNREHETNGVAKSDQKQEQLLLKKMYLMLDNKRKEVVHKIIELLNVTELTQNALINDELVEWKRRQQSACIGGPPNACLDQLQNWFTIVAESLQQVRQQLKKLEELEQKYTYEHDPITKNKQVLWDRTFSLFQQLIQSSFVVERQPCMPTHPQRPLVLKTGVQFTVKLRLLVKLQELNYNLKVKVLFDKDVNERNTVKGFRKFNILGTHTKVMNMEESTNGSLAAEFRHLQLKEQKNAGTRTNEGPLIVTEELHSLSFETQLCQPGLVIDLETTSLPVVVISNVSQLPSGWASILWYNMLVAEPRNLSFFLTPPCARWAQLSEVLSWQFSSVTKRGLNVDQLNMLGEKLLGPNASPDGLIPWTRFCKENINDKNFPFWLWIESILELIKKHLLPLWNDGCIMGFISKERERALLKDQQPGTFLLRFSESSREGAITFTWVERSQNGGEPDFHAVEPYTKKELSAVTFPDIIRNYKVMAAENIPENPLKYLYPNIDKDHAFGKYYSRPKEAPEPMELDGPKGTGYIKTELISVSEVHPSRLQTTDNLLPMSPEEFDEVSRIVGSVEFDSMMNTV
Chain of Sphingosine 1-phosphate receptor 5 (Q9H228 whole entry): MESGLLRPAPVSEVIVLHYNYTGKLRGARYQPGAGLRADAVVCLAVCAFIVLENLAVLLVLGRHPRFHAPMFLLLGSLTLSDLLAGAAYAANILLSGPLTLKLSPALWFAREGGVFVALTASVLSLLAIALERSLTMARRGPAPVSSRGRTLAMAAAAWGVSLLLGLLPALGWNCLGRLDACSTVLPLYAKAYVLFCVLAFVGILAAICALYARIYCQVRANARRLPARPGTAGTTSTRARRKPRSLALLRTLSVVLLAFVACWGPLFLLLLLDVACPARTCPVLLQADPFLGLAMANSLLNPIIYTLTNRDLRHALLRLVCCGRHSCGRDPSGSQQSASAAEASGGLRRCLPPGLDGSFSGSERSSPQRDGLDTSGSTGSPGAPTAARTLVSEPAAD
Chain of Tyrosine-protein phosphatase non-receptor type 12 (Q05209 whole entry): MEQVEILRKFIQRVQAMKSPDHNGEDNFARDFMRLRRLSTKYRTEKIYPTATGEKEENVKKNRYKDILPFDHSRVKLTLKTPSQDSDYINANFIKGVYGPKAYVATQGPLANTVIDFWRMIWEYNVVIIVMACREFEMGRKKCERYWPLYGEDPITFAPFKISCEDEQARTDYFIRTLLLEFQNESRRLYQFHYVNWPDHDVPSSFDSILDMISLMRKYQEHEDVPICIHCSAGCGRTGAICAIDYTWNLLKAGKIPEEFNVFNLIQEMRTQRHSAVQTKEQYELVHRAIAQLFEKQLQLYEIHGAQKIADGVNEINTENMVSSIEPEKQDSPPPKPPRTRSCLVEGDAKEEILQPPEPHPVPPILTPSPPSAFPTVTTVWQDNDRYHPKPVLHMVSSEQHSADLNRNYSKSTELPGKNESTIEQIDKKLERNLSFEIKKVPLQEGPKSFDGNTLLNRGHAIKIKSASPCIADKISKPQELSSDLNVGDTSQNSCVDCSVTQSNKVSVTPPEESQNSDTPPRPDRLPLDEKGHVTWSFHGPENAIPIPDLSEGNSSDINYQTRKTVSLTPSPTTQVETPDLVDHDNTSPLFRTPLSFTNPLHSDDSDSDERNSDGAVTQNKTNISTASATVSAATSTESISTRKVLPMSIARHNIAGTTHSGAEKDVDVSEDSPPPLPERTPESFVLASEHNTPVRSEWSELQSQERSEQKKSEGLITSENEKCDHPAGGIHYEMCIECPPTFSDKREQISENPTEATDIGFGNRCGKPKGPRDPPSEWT
Chain of Sphingosine 1-phosphate receptor 1 (P21453 whole entry): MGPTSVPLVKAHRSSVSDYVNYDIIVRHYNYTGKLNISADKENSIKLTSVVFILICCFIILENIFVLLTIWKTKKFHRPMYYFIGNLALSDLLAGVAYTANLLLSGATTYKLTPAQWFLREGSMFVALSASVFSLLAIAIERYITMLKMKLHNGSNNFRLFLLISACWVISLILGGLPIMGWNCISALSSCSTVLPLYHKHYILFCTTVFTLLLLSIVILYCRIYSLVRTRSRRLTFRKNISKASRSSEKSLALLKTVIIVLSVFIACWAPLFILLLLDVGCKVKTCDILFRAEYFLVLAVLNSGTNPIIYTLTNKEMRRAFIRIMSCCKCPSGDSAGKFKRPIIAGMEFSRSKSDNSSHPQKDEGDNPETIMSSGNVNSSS

EC50 [1]: > 100 µM (inactive)
SMILES: COc1cc(NC(=S)NC(=O)CCc2ccccc2)cc(OC)c1

EC50 [2]: > 32 µM (inactive)
EC50 (Cannabinoid receptor 1 [3]): > 32 µM (inactive)
IC50 [4]: > 32 µM (inactive)
IC50 (Cannabinoid receptor 1 [5]): 14.7 µM (inactive)
IC50 [6]: 22.7 µM (inactive)
IC50 (Cannabinoid receptor 2 [7]): > 32 µM (inactive)
EC50 (Cannabinoid receptor 2 [8]): > 32 µM (inactive)
SMILES: Cc1nc(N2CCN(C(=O)C(C)C)CC2)c2c3c(sc2n1)CCCC3

IC50 [9]: 0.68 µM (active)
IC50 (Cannabinoid receptor 1 [10]): 9.6 µM (active)
EC50 [11]: > 32 µM (inactive)
IC50 (Cannabinoid receptor 2 [12]): > 32 µM (inactive)
EC50 (Cannabinoid receptor 1 [13]): > 32 µM (inactive)
IC50 [14]: > 32 µM (inactive)
IC50 [15]: 0.76 µM (active)
EC50 (Cannabinoid receptor 2 [16]): > 32 µM (inactive)
SMILES: O=C(N1CCC(n2nc(-c3ccccc3)oc2=O)CC1)C1(c2ccc(Cl)cc2)CC1

EC50 [17]: > 50 µM (inactive)
EC50 [18]: > 50 µM (inactive)
EC50 [19]: > 50 µM (inactive)
EC50 [20]: > 50 µM (inactive)
SMILES: Cc1ccc(OCCOc2ccc(Cl)cc2Cl)c(Br)n1

SMILES: Cc1nc(N2CCC(C(O)c3ccccc3)CC2)c2c3c(sc2n1)CCCC3 (stereo unspecified)
IC50 [21]: > 55.7 µM (inactive)
IC50 [22]: > 55.7 µM (inactive)

SMILES: COC(=O)COc1ccc(/C=C2\SC(=Nc3ccc(F)cc3)NC2=O)cc1
IC50 [23]: 0.975 µM (active)
IC50 [24]: 3.49 µM (active)
IC50 [25]: 1.07 µM (active)
IC50 [26]: 1.58 µM (active)
IC50 [27]: 3.39 µM (active)
IC50 [28]: 2.49 µM (active)
IC50 [29]: 50.7 µM (active)

SMILES: CCc1nnc(NC(=O)c2sc3nc4c(cc3c2N)CCCCC4)s1
IC50 [30]: 26.5 µM (active)
IC50 [31]: 16.6 µM (active)
